Test results taken from PubChem BioAssay (NCI).
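These data come from cells grown in 96-well plates and exposed to compound for 48 hours at five concentrations. GI50 is the concentration that inhibits growth by half. At the TGI there is no net growth.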

What was measured:
Assay in all cases: NCI-60 cell line screen, 48 h; in the data active means GI50 below about 0.43 µM; inactive means the rest
786-0 renal = tested on: 786-0 renal
A498 renal = tested on: A498 renal
A549 NSCLC = tested on: A549 NSCLC
ACHN renal = tested on: ACHN renal
BT-549 breast = tested on: BT-549 breast
CAKI-1 renal = tested on: CAKI-1 renal
CCRF-CEM leukemia = tested on: CCRF-CEM leukemia
COLO 205 colon = tested on: COLO 205 colon
DU-145 prostate = tested on: DU-145 prostate
EKVX NSCLC = tested on: EKVX NSCLC
HCC-2998 colon = tested on: HCC-2998 colon
HCT-116 colon = tested on: HCT-116 colon
HCT-15 colon = tested on: HCT-15 colon
HL-60(TB) leukemia = tested on: HL-60(TB) leukemia
HOP-62 NSCLC = tested on: HOP-62 NSCLC
HOP-92 NSCLC = tested on: HOP-92 NSCLC
HS 578T breast = tested on: HS 578T breast
HT29 colon = tested on: HT29 colon
IGROV1 ovarian = tested on: IGROV1 ovarian
K-562 leukemia = tested on: K-562 leukemia
KM12 colon = tested on: KM12 colon
LOX IMVI melanoma = tested on: LOX IMVI melanoma
M14 melanoma = tested on: M14 melanoma
MALME-3M melanoma = tested on: MALME-3M melanoma
MCF7 breast = tested on: MCF7 breast
MDA-MB-231 breast = tested on: MDA-MB-231 breast
MOLT-4 leukemia = tested on: MOLT-4 leukemia
NCI-H226 lung = tested on: NCI-H226 lung
NCI-H23 lung = tested on: NCI-H23 lung
NCI-H460 lung = tested on: NCI-H460 lung
NCI-H522 lung = tested on: NCI-H522 lung
NCI/ADR-RES ovarian = tested on: NCI/ADR-RES ovarian
OVCAR-3 ovarian = tested on: OVCAR-3 ovarian
OVCAR-4 ovarian = tested on: OVCAR-4 ovarian
OVCAR-5 ovarian = tested on: OVCAR-5 ovarian
OVCAR-8 ovarian = tested on: OVCAR-8 ovarian
PC-3 prostate = tested on: PC-3 prostate
RPMI-8226 leukemia = tested on: RPMI-8226 leukemia
RXF 393 renal = tested on: RXF 393 renal
SF-268 CNS = tested on: SF-268 CNS
SF-295 CNS = tested on: SF-295 CNS
SF-539 CNS = tested on: SF-539 CNS
SK-MEL-2 melanoma = tested on: SK-MEL-2 melanoma
SK-MEL-28 melanoma = tested on: SK-MEL-28 melanoma
SK-MEL-5 melanoma = tested on: SK-MEL-5 melanoma
SK-OV-3 ovarian = tested on: SK-OV-3 ovarian
SN12C renal = tested on: SN12C renal
SNB-19 CNS = tested on: SNB-19 CNS
SNB-75 CNS = tested on: SNB-75 CNS
SR leukemia = tested on: SR leukemia
SW-620 colon = tested on: SW-620 colon
T-47D breast = tested on: T-47D breast
TK-10 renal = tested on: TK-10 renal
U251 CNS = tested on: U251 CNS
UACC-257 melanoma = tested on: UACC-257 melanoma
UACC-62 melanoma = tested on: UACC-62 melanoma
UO-31 renal = tested on: UO-31 renal

Cc1ccc(C2=NN(c3ccc(S(C)(=O)=O)cc3)C(=O)CC2)cc1
16.8 µM: TGI (SF-295 CNS)
> 85.4 µM: TGI (HCT-116 colon)
23.4 µM: TGI (SF-539 CNS)
> 26.1 µM: TGI (RXF 393 renal)
2.35 µM: TGI (OVCAR-3 ovarian)
> 32.9 µM: TGI (HT29 colon)
1.04 µM: TGI (NCI-H522 lung)
> 100 µM: TGI (786-0 renal) | TGI (A549 NSCLC) | TGI (ACHN renal) | TGI (BT-549 breast) | TGI (CAKI-1 renal) | TGI (CCRF-CEM leukemia) | TGI (DU-145 prostate) | TGI (EKVX NSCLC) | TGI (HCC-2998 colon) | TGI (HCT-15 colon) | TGI (HOP-62 NSCLC) | TGI (HS 578T breast) | TGI (IGROV1 ovarian) | TGI (K-562 leukemia) | TGI (KM12 colon) | TGI (LOX IMVI melanoma) | TGI (M14 melanoma) | TGI (MALME-3M melanoma) | TGI (MCF7 breast) | TGI (MDA-MB-231 breast) | TGI (MOLT-4 leukemia) | TGI (NCI-H226 lung) | TGI (NCI-H23 lung) | TGI (NCI-H460 lung) | TGI (NCI/ADR-RES ovarian) | TGI (OVCAR-4 ovarian) | TGI (OVCAR-5 ovarian) | TGI (OVCAR-8 ovarian) | TGI (PC-3 prostate) | TGI (RPMI-8226 leukemia) | TGI (SF-268 CNS) | TGI (SK-MEL-2 melanoma) | TGI (SK-MEL-28 melanoma) | TGI (SN12C renal) | TGI (SNB-19 CNS) | TGI (SR leukemia) | TGI (SW-620 colon) | TGI (T-47D breast) | TGI (TK-10 renal) | TGI (U251 CNS) | TGI (UACC-257 melanoma) | TGI (UACC-62 melanoma) | TGI (UO-31 renal)
active: GI50 (A498 renal) 0.282 µM | GI50 (HT29 colon) 0.349 µM | GI50 (K-562 leukemia) 0.408 µM | GI50 (M14 melanoma) 0.419 µM | GI50 (NCI-H460 lung) 0.402 µM | GI50 (NCI-H522 lung) 0.225 µM | GI50 (NCI/ADR-RES ovarian) 0.322 µM | GI50 (OVCAR-3 ovarian) 0.349 µM | GI50 (SF-295 CNS) 0.396 µM | GI50 (SR leukemia) 0.4 µM | GI50 (SW-620 colon) 0.368 µM
inactive: GI50 (786-0 renal) 7.26 µM | GI50 (A549 NSCLC) 0.615 µM | GI50 (ACHN renal) 8.52 µM | GI50 (BT-549 breast) 0.569 µM | GI50 (CAKI-1 renal) 1.64 µM | GI50 (CCRF-CEM leukemia) 0.843 µM | GI50 (COLO 205 colon) 0.587 µM | GI50 (DU-145 prostate) 2.48 µM | GI50 (EKVX NSCLC) 3.84 µM | GI50 (HCC-2998 colon) 3.1 µM | GI50 (HCT-116 colon) 0.431 µM | GI50 (HCT-15 colon) 0.74 µM | GI50 (HL-60(TB) leukemia) 0.525 µM | GI50 (HOP-62 NSCLC) 1.78 µM | GI50 (HOP-92 NSCLC) 1.02 µM | GI50 (HS 578T breast) 2.24 µM | GI50 (IGROV1 ovarian) 1.82 µM | GI50 (KM12 colon) 0.452 µM | GI50 (LOX IMVI melanoma) 0.806 µM | GI50 (MALME-3M melanoma) 51.9 µM | GI50 (MCF7 breast) 1.3 µM | GI50 (MDA-MB-231 breast) 1.37 µM | GI50 (MOLT-4 leukemia) 0.875 µM | GI50 (NCI-H226 lung) 42.3 µM | GI50 (NCI-H23 lung) 2.13 µM | GI50 (OVCAR-4 ovarian) > 27.3 µM | GI50 (OVCAR-5 ovarian) 10.1 µM | GI50 (OVCAR-8 ovarian) 1.35 µM | GI50 (PC-3 prostate) 1.78 µM | GI50 (RPMI-8226 leukemia) 1.62 µM | GI50 (RXF 393 renal) 1.11 µM | GI50 (SF-268 CNS) 6.25 µM | GI50 (SF-539 CNS) 1.45 µM | GI50 (SK-MEL-2 melanoma) 0.541 µM | GI50 (SK-MEL-28 melanoma) 2.58 µM | GI50 (SK-MEL-5 melanoma) 0.633 µM | GI50 (SK-OV-3 ovarian) 1.57 µM | GI50 (SN12C renal) 5.57 µM | GI50 (SNB-19 CNS) 6.42 µM | GI50 (SNB-75 CNS) 0.542 µM | GI50 (T-47D breast) 3.82 µM | GI50 (TK-10 renal) 12.8 µM | GI50 (U251 CNS) 0.579 µM | GI50 (UACC-257 melanoma) 3.4 µM | GI50 (UACC-62 melanoma) 0.493 µM | GI50 (UO-31 renal) 7.85 µM
7.73 µM: TGI (A498 renal)
9.25 µM: TGI (SNB-75 CNS)
> 28.8 µM: TGI (HOP-92 NSCLC)
> 42.1 µM: TGI (SK-MEL-5 melanoma)
5.16 µM: TGI (COLO 205 colon)
21.5 µM: TGI (SK-OV-3 ovarian)
